*1 amine or outer side, *2 acyl side, *3 side chain or, on linkers, in order; H or OH if unused. Where a SMILES comes first, the peptide text is derived from it. The star is where a group is joined. X1 = O=C(CCCC[C@@H]1SC[C@@H]2NC(=O)N[C@@H]21)NCCCOCCOCCOCCCN*; Suc = O=C(CCC(=O)[*:2])[*:1]
Legend:
[1] = target: T1, DLG4 PDZ 1 (Homo sapiens, UniProt P78352); assay: Holdup assay, DLG4-1; type: binding; conditions: for BI: DLG4-1
T1 construct: made in house; host or cells: E. coli
Method: (§1) The holdup assay was performed on a Tecan freedom Evo200 robot with 384-well plates in singlicate for the three 11-mer PTEN variants and the 13-mer PTEN peptide as described in [31, 32]. Briefly, prior to interaction assay, 2.5 μL of streptavidin resin was saturated in each well with 20 μL of biotinylated PBM peptides (42 μM) and then washed twice with an excess of free biotin, while the reference resin was incubated only with biotin. Right before the holdup experiment, the PDZ library was spiked with an internal standard of lysozyme. Then, the biotin- or PBM-saturated resin was incubated, each in a distinct well of a 384-well plate, with complete cell lysates diluted so that the concentration of the tag-PDZ present in the crude extract is adjusted at 4 μM. After a sufficient time to reach complex equilibrium (15 min.), a fast and mild filtration step is performed and the tag-PDZ concentrations were measured by capillary electrophoresis instrument (LabChip GXII, PerkinElmer, Massachusets, USA). Standard markers were used to convert migration time into molecular weight on the LabChip software and inappropriate molecular weight markers were corrected or excluded.
(§2) For filtered data, the BI was extracted with the following equation (Eq 1) that estimates the depleted fraction after superimposition of the sample and reference electropherograms: BI=Iref−Ilig/Iref (1) where Iref and Ilig are the intensities of the tag-PDZ peaks measured, for each PDZ domain/PBM peptide interaction pair, in the biotin reference and the PBM electropherograms, respectively.
(§3) BIs were transformed into dissociation constants (KD) using the following formula: KD=([PDZtot]−BI·[PDZtot])·([PBMtot]−BI·[PDZtot])/BI·[PDZtot] (2) where [PDZtot] and [PBMtot] correspond to the total concentrations of the PDZ domain (usually around 4 μM) and the PBM peptide used during the assay. Since the PBMtot concentration in the resin during the holdup assay parameter may differ from one peptide to another and remains unknown, it is impossible to directly convert BI values into KD constants. We systematically determined the KD constants for a subset of PDZ/PBM pairs by competitive FP. […] For each PBM, the average peptide concentration was calculated after outlier rejection based on the absolute distances from the median as compared to three times the standard deviation (3σ rule), with never more than 2 values rejected.

[2] = target: T2, MAST1 PDZ 1 (Homo sapiens, UniProt Q9Y2H9); assay: Holdup assay, MAST1-1; type: binding
T2 construct: made in house; host or cells: E. coli
T2 sequence (Q9Y2H9 967-1055 limits assumed): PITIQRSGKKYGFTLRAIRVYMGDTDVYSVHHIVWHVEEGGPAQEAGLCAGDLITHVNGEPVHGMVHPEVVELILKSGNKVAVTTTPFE
Method: as §1, §2, §3

[3] = target: T3, NHERF2 PDZ 1 (Homo sapiens, UniProt Q15599); assay: Holdup assay, NHERF2-1; type: binding; conditions: PDZ domain NHERF2-1
T3 construct: made in house; host or cells: E. coli
Method: as §1, §2, §3

[4] = target: T4, NHERF2 PDZ 2 (Homo sapiens, UniProt Q15599); assay: Holdup assay, NHERF2-2; type: binding; conditions: for BI: PDZ domain NHERF2-2 (gene MPDZ, 9)
T4 construct: made in house; host or cells: E. coli
Method: as §1, §2, §3

[5] = target: T5, SNTB2 PDZ 1 (Homo sapiens, UniProt Q13425); assay: Holdup assay, SNTB2-1; type: binding; conditions: for BI: PDZ domain SNTB2-1
T5 construct: made in house; host or cells: E. coli
T5 sequence (Q13425 115-198 limits assumed): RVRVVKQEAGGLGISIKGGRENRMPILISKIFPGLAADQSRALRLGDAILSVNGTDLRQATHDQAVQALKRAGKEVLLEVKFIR
Method: as §1, §2, §3

[6] = tested on: APBA2-2; assay: Holdup assay, APBA2-2; type: binding, human
[7] = target: DLG1-1 (Homo sapiens, UniProt Q12959); assay: Holdup assay, DLG1-1; type: binding
[8] = target: DLG2-2 (Homo sapiens, UniProt Q15700); assay: Holdup assay, DLG2-2; type: binding
[9] = target: DLG4-2 (Homo sapiens, UniProt P78352); assay: Holdup assay, DLG4-2; type: binding
[10] = tested on: DLG5-1; assay: Holdup assay, DLG5-1; type: binding, human
[11] = tested on: FRMPD2-3; assay: Holdup assay, FRMPD2-3; type: binding, human
[12] = tested on: FRMPD4-1; assay: Holdup assay, FRMPD4-1; type: binding, human
[13] = target: GOPC-1 (Homo sapiens, UniProt Q9HD26); assay: Holdup assay, GOPC-1; type: binding
[14] = tested on: GRIP1-7; assay: Holdup assay, GRIP1-7; type: binding, human
[15] = tested on: GRIP2-7; assay: Holdup assay, GRIP2-7; type: binding, human
[16] = tested on: HTRA3-1; assay: Holdup assay, HTRA3-1; type: binding, human
[17] = tested on: INADL-10; assay: Holdup assay, INADL-10; type: binding, human
[18] = tested on: INADL-4; assay: Holdup assay, INADL-4; type: binding, human
[19] = target: T6, LNX1-2 (Homo sapiens, UniProt Q8TBB1); assay: Holdup assay, LNX1-2; type: binding
T6 sequence (Q8TBB1 385-467): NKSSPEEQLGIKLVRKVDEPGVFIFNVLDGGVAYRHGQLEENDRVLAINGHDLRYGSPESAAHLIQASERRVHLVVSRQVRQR

[20] = tested on: LNX2-4; assay: Holdup assay, LNX2-4; type: binding, human
[21] = target: MAGI2-6 (Homo sapiens, UniProt Q86UL8); assay: Holdup assay, MAGI2-6; type: binding
[22] = tested on: MAGI3-4; assay: Holdup assay, MAGI3-4; type: binding, human
[23] = target: T7, NHERF1 PDZ 1 (Homo sapiens, UniProt O14745); assay: Holdup assay, NHERF1-1; type: binding
T7 construct: NHERF1-1 as the first PDZ domain of the NHERF1 protein; made in house; host or cells: E. coli
T7 sequence (O14745 14-94 limits assumed): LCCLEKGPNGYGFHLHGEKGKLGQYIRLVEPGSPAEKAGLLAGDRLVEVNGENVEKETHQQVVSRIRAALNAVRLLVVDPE
Method: as §1, §2, §3

T4 sequence (Q15599 150-230 limits assumed): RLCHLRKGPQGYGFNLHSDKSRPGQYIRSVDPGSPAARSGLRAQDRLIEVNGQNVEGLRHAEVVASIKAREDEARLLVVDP
Sequence of MAGI2-6 (Q86UL8 1147-1229): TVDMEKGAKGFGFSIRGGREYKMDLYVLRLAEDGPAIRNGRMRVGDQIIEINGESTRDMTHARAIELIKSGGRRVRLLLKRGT
T1 sequence (P78352 65-151): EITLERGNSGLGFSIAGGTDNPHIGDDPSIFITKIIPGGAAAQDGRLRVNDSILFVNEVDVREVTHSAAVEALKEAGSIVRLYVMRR
Sequence of DLG2-2 (Q15700 193-280): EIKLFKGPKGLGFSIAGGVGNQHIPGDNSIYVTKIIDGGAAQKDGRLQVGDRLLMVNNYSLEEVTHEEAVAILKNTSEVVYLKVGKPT
Sequence of DLG4-2 (P78352 160-246): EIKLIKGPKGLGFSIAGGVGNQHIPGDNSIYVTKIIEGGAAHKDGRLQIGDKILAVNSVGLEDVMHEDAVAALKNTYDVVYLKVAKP
T3 sequence (Q15599 11-90 limits assumed): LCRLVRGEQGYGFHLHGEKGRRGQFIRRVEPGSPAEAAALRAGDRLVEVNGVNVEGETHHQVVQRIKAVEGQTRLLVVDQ

## CC[C@H](C)[C@H](NC(=O)[C@H](CCC(N)=O)NC(=O)[C@@H](NC(=O)[C@H](Cc1c[nH]cn1)NC(=O)[C@H](CCC(N)=O)NC(=O)[C@H](CC(=O)O)NC(=O)[C@H](CCC(=O)O)NC(=O)[C@H](CC(=O)O)NC(=O)[C@H](Cc1ccccc1)NC(=O)[C@@H]1CCCN1C(=O)CCC(=O)NCCCOCCOCCOCCCNC(=O)CCCC[C@@H]1SC[C@@H]2NC(=O)N[C@@H]21)[C@@H](C)O)C(=O)N[C@H](C(=O)N[C@@H](CCCCN)C(=O)N[C@H](C(=O)O)C(C)C)[C@@H](C)O [PTEN_13] ({X1-Suc}-PFDEDQHTQITKV-OH)
[1]
  BI: 0.077
[2]
  Kd: 7.64 µM
[3]
  BI: 0.11
[4]
  BI: 0.117
[5]
  Kd: 64 µM
  BI: 0.202
[6]
  BI: 0.041
[7]; DLG1-1
  BI: 0.011
  LogKD: 3.826
[8]
  BI: 0.054
  LogKD: 3.826
[9]
  BI: -0.004
  LogKD: 3.826
[10]
  BI: -0.048
[11]
  BI: -0.027
[12]
  BI: -0.07
[13]
  BI: 0.199
  Kd: 65.2 µM
[14]
  BI: 0.015
[15]
  BI: -0.039
[16]
  BI: -0.059
[17]
  BI: -0.05
[18]
  BI: -0.084
[19]
  BI: 0.44
  Kd: 19.4 µM
[20]
  BI: 0.093
[21]
  BI: 0.236
  Kd: 52 µM
[22]
  BI: -0.112

## CC[C@H](C)[C@H](NC(=O)[C@H](CCC(N)=O)NC(=O)[C@@H](NC(=O)[C@H](Cc1c[nH]cn1)NC(=O)[C@H](CCC(N)=O)NC(=O)[C@H](CC(=O)O)NC(=O)[C@H](CCC(=O)O)NC(=O)[C@H](CC(=O)O)NC(=O)CCC(=O)NCCCOCCOCCOCCCNC(=O)CCCC[C@@H]1SC[C@@H]2NC(=O)N[C@@H]21)[C@@H](C)O)C(=O)N[C@H](C(=O)N[C@@H](CCCNC(=N)N)C(=O)N[C@H](C(=O)O)C(C)C)[C@@H](C)O [PTEN_KR] ({X1-Suc}-DEDQHTQITRV-OH)
[1]
  Kd: 81.1 µM
  BI: 0.229
[2]
  Kd: 32.2 µM
[2]; MAST1-1
  BI: 0.42
[23]
  Kd: 3.45 µM
[23]; PDZ domain NHERF1-1
  BI: 0.862
[3]
  BI: 0.169
[4]
  Kd: 20.9 µM
  BI: 0.523
[5]
  BI: 0.009
[6]
  BI: -0.002
  LogKD: 3.655
[7]
  Kd: 88.1 µM
[7]; DLG1-1
  BI: 0.215
[8]
  BI: 0.312
  Kd: 52.4 µM
[9]
  BI: 0.284
  Kd: 60.2 µM
[10]
  BI: -0.041
  LogKD: 3.655
[11]
  BI: -0.067
  LogKD: 3.655
[12]
  BI: -0.051
  LogKD: 3.655
[13]
  BI: 0.45
  Kd: 28.4 µM
[14]
  BI: -0.06
  LogKD: 3.655
[15]
  BI: -0.066
  LogKD: 3.655
[16]
  BI: 0.065
  LogKD: 3.655
[17]
  BI: 0.019
  LogKD: 3.655
[18]
  BI: -0.04
  LogKD: 3.655
[20]
  BI: -0.045
  LogKD: 3.655
[21]
  BI: 0.358
  Kd: 42.3 µM
[22]
  BI: -0.011
  LogKD: 3.655
